Measured values reported in the Kinase Knowledgebase extract (Sharma et al. 2016).

Each compound was assayed against MAPK14 (human) (UniProt Q16539) (assay: Inhibition of LPS-stimulated TNF-alpha Production in Human Monocytic Cells). Conditions: thp.1 monocytic.
MAPK14 (human), sequence (Q16539 whole entry, looked up): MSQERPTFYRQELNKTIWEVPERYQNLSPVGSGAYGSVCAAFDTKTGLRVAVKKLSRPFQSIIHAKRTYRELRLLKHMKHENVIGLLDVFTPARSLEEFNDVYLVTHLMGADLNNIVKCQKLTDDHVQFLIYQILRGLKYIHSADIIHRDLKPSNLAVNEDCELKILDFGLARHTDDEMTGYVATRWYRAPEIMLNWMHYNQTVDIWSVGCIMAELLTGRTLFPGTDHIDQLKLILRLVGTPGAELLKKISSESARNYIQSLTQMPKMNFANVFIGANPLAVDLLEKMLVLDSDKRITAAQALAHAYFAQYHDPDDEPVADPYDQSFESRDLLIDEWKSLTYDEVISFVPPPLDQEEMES
With `CC[C@H](C)Nc1nccc(-c2nn3c(c2-c2ccc(F)cc2)OCC3)n1` the IC50 was 0.08 µM. `COC[C@H](C)Nc1nccc(-c2nn3c(c2-c2ccc(F)cc2)OCC3)n1` showed an IC50 of 1.7 µM. `C[C@H](Nc1nccc(-c2nn3c(c2-c2ccc(F)cc2)OCC3)n1)c1ccccc1` was tested, and the IC50 was over 2 µM. Compound `CCOCn1nnc(-c2ccncc2)c1-c1ccc(F)cc1` has an IC50 of 0.49 µM. With `Fc1ccc(-c2c(-c3ccnc(Oc4ccccc4)n3)nn3c2OCCC3)cc1` the IC50 was over 10 µM.

These compounds were tested against PIK3CD (Human) (UniProt O00329) (assay: Assessment of PIK3CD Kinase Activity). Conditions: not given.
PIK3CD (Human), sequence (O00329 whole entry, looked up): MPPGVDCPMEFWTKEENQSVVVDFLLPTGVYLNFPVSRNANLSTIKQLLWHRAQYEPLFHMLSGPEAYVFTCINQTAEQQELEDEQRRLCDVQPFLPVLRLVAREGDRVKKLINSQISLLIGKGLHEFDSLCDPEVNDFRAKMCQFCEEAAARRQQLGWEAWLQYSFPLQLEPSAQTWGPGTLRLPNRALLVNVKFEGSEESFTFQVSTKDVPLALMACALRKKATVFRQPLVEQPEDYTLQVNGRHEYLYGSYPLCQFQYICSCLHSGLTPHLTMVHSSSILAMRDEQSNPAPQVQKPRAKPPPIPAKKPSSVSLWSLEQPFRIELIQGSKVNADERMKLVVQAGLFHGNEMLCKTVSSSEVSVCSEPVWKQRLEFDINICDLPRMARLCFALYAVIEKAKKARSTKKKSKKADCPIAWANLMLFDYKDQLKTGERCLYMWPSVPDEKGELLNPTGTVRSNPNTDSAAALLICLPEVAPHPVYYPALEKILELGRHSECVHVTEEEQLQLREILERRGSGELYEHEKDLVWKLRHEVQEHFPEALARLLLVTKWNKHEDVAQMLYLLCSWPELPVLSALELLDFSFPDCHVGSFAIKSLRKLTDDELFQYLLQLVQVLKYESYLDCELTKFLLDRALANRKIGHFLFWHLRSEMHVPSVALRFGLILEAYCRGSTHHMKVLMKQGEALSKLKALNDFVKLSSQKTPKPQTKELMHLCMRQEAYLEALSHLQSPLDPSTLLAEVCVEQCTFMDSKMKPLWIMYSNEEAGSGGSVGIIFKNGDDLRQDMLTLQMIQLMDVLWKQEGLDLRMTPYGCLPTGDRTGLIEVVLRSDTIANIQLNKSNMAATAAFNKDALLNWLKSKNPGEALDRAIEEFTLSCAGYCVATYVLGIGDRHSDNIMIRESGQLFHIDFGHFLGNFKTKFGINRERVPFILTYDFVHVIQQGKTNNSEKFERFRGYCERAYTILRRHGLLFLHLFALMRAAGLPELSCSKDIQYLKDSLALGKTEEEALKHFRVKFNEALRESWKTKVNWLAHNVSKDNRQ
`Nc1ncc(-c2cnc3ccc(-c4ccc(C(=O)N5CCN(Cc6ccccn6)CC5)cc4)nn23)cc1C(F)(F)F` gave an IC50 of 0.093 µM. For `CN1CC2CN(c3cnc4ncc(-c5ccc6oc(N)nc6c5)cc4n3)CC2C1` (stereo not given), the IC50 was 0.1 to 1 µM. `COCCn1c(Cc2nc(N3CCOCC3)cc(=O)[nH]2)nc2ccccc21` gave an IC50 of 0.27 µM. `Cc1c(Cn2ccn3c(=O)cc(C4C=COCC4)nc23)cccc1C(F)(F)F` (stereo not given) was tested, and the IC50 was 0.04 µM.

Each compound was assayed against EGFR (human) (UniProt P00533) (assay: not given). Conditions: not given.
EGFR (human), sequence (P00533 whole entry, looked up): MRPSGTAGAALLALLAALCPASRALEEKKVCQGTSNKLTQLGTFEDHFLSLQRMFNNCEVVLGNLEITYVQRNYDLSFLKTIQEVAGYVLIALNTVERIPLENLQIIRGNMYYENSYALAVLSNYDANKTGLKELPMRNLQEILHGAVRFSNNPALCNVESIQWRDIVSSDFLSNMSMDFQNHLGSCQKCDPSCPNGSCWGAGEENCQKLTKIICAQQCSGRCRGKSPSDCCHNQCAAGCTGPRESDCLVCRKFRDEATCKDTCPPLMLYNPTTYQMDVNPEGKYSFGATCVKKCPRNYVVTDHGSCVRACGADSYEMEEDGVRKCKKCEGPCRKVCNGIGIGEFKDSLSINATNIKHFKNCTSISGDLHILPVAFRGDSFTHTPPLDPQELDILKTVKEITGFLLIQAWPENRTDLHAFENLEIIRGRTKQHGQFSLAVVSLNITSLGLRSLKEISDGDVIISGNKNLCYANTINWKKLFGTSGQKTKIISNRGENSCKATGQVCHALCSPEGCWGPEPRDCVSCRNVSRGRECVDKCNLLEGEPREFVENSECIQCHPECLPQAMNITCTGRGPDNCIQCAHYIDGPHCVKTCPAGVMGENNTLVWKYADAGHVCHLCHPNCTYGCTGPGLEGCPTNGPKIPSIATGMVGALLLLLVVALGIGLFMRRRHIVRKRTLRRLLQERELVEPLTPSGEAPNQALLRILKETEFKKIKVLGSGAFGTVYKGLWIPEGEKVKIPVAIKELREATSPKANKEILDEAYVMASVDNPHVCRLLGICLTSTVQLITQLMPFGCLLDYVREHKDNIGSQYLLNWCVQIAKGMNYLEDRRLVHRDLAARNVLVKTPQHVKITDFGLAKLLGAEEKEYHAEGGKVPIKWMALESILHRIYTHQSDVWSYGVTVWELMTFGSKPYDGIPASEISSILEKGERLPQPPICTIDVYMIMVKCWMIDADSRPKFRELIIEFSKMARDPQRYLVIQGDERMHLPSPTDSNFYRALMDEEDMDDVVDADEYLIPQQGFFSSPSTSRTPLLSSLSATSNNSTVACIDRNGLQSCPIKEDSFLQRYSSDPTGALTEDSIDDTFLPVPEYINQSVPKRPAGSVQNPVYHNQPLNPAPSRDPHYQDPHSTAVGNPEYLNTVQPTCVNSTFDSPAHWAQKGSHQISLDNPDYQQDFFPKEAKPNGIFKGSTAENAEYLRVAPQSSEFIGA
`Cc1ccnc(NS(=O)(=O)c2ccc(Nc3nc(C)c4c(=O)[nH]c(SCc5ccccc5)nc4n3)cc2)n1` showed an IC50 of 7.8 µM. Compound `Cc1ccnc(NS(=O)(=O)c2ccc(Nc3nc(C)c4c(=O)[nH]c(Nc5cccc(Cl)c5)nc4n3)cc2)n1` has an IC50 of over 10 µM. Compound `Cc1ccnc(NS(=O)(=O)c2ccc(Nc3nc(C)c4c(=O)[nH]c(NCc5ccccc5)nc4n3)cc2)n1` has an IC50 of 6.6 µM. With `Cc1ccnc(NS(=O)(=O)c2ccc(Nc3nc(C)c4c(=O)[nH]c(Nc5ccc(S(=O)(=O)O)cc5)nc4n3)cc2)n1` the IC50 was 8.1 µM. Compound `Cc1ccnc(NS(=O)(=O)c2ccc(Nc3nc(-c4ccc(O)cc4O)c4c(=O)[nH]c(SCc5ccccc5)nc4n3)cc2)n1` has an IC50 of 5.5 µM.

What follows are compounds tested against PIK3CB (Human) (UniProt P42338) (assay: Assessment of PIK3CB Kinase Activity). Conditions: not given.
PIK3CB (Human), sequence (P42338 whole entry, looked up): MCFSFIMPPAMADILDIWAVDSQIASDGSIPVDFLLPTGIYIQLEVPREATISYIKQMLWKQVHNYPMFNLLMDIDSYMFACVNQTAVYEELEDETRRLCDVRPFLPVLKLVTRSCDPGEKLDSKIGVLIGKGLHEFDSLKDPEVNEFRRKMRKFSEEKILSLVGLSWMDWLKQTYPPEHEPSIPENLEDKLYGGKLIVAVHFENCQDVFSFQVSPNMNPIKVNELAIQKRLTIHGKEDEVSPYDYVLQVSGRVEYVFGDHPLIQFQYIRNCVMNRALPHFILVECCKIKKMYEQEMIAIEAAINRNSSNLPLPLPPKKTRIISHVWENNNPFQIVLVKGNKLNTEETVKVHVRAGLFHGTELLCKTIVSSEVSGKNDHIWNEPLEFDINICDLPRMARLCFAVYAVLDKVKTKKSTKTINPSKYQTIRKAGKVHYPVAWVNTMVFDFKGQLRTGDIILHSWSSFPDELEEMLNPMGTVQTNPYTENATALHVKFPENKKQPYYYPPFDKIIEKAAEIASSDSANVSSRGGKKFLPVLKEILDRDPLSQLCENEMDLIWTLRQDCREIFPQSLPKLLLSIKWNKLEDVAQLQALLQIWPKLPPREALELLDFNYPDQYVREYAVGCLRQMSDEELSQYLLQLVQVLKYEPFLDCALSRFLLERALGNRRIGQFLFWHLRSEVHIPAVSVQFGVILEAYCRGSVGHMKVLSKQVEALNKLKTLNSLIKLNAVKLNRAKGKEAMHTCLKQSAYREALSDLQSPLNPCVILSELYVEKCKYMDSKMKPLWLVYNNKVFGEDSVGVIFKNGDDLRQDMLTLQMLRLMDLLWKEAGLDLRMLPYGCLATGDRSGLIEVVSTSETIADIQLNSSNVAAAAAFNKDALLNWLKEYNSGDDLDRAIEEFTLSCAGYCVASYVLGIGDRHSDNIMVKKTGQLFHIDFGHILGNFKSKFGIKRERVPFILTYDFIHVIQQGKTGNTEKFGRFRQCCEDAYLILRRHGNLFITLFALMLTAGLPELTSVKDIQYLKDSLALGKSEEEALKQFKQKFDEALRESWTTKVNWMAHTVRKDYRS
In the case of `Nc1ncc(-c2cnc3ccc(-c4ccc(C(=O)N5CCN(Cc6ccccn6)CC5)cc4)nn23)cc1C(F)(F)F`, the IC50 is reported as 0.979 µM. `CC(Nc1ccc(F)cc1)c1cc(C(=O)N(C)C)cc2c(=O)cc(N3CCO[C@@H](C)C3)oc12` (stereo not given in full) gave an IC50 of 0.064 µM. For `CN1CC2CN(c3cnc4ncc(-c5ccc6oc(N)nc6c5)cc4n3)CC2C1` (stereo not given), the IC50 was 0.1 to 1 µM. In the case of `COCCn1c(Cc2nc(N3CCOCC3)cc(=O)[nH]2)nc2ccccc21`, the IC50 is reported as 0.205 µM. In the case of `Cc1c(Cn2ccn3c(=O)cc(C4C=COCC4)nc23)cccc1C(F)(F)F` (stereo not given), the IC50 is reported as 0.013 µM.

What follows are compounds tested against PIK3CA (human) (UniProt P42336) (assay: Assessment of PIK3CA Kinase Activity). Conditions: not given.
`Nc1ncc(-c2cnc3ccc(-c4ccc(C(=O)N5CCN(Cc6ccccn6)CC5)cc4)nn23)cc1C(F)(F)F` showed an IC50 of 0.016 µM. With `CN1CC2CN(c3cnc4ncc(-c5ccc6oc(N)nc6c5)cc4n3)CC2C1` (stereo not given) the IC50 was under 0.1 µM.

Each compound was assayed against EGFR (UniProt P00533) (assay: EGFR Kinase Inhibition). Conditions: not given.
EGFR, sequence (P00533 whole entry, looked up): as the sequence (P00533 whole entry, looked up) above
Compound `CC(C)[C@@H](NC1=C(CC2CCCC3CCCCC32)C(=O)C(O)=CC1=O)C(=O)O` (stereo not given in full) has an IC50 of over 100 µM. Compound `CN1CCN(CCCCCNc2ncc3cc(-c4c(Cl)cccc4Cl)c(=O)n(C)c3n2)CC1` has an IC50 of 4.5 µM. `COc1ccc(Nc2ncc3cc(-c4c(Cl)cccc4Cl)c(=O)n(C)c3n2)cn1` showed an IC50 of 1.3 µM. In the case of `Cn1c(=O)c(-c2c(Cl)cccc2Cl)cc2cnc(NCCCCCC(=O)O)nc21`, the IC50 is reported as 1 µM. `C[C@@H](O)[C@@H](NC1=CC(=O)C(N[C@@H](C(=O)O)[C@@H](C)O)=CC1=O)C(=O)O` gave an IC50 of 44 µM.

These compounds were tested against PIK3CG (human) (UniProt P48736) (assay: Assessment of PIK3CG Kinase Activity). Conditions: not given.
For `COCCn1c(Cc2nc(N3CCOCC3)cc(=O)[nH]2)nc2ccccc21`, the IC50 was over 10 µM.

What follows are compounds tested against EGFR (murine) (UniProt P00533) (assay: not given). Conditions: nih3t3.
Work on `COc1ccc2nc(-c3ccccc3)c(-c3ccccc3)nc2n1` yielded an IC50 of over 100 µM. Compound `Fc1ccc(CNc2ccc3nc(-c4ccccc4)c(-c4ccccc4)nc3n2)cc1` has an IC50 of over 100 µM. In the case of `Cc1nc2ccc(NCc3ccc(F)cc3)nc2nc1-c1ccccc1`, the IC50 is reported as over 100 µM. Compound `COc1ccc2nc(C)c(-c3ccccc3)nc2n1` has an IC50 of over 100 µM. In the case of `Oc1ccc(-c2cnc3ccc(NCc4ccccc4)nc3n2)cc1`, the IC50 is reported as over 50 µM. Work on `c1ccc(Nc2ccc3ncc(-c4ccccc4)nc3n2)cc1` yielded an IC50 of over 50 µM.

These compounds were tested against EGFR (human) (UniProt P00533) (assay: not given). Conditions: a431.
Work on `COc1cccc(Nc2nc(N)nc3[nH]c4cccc(Cl)c4c23)c1` yielded an IC50 of 167 µM. In the case of `CC(C)c1ccc(Nc2nc(NC(=O)C(C)(C)C)nc3[nH]c4cccc(Cl)c4c23)cc1`, the IC50 is reported as over 250 µM. `CC(C)(C)C(=O)Nc1nc(Nc2cccc(F)c2)c2c(n1)[nH]c1cccc(Cl)c12` was tested, and the IC50 was over 250 µM. With `CC(C)(C)C(=O)Nc1nc(Nc2ccc(Cl)cc2)c2c(n1)[nH]c1cccc(Cl)c12` the IC50 was 55 µM. For `Nc1nc(Nc2ccc(Cl)cc2)c2c(n1)[nH]c1cccc(Cl)c12`, the IC50 was 44.1 µM.

What follows are compounds tested against MAPK14 (human) (UniProt Q16539) (assay: Inhibition of LPS Induced TNF-alpha Production in THP-1 Cells). Conditions: thp1.
`COC(=O)c1ccc(C)c(Nc2nc(N[C@H]3CCNC3)nc(N(C)CC(C)(C)C)n2)c1` gave an IC50 of over 0.25 µM. For `CCC(C)N(C)c1nc(Nc2cc(C(N)=O)ccc2C)nc(N[C@H]2CCNC2)n1` (stereo not given in full), the IC50 was 0.325 µM. With `Cc1ccc(C(N)=O)cc1Nc1nc(NCC(C)C)nc(N[C@H]2CCNC2)n1` the IC50 was over 5 µM. `Cc1ccc(C(N)=O)cc1Nc1nc(N[C@H]2CCNC2)nc(N(C)C2CCCCC2)n1` showed an IC50 of 1.3 µM. `Cc1ccc(C(N)=O)cc1Nc1nc(NCCc2ccc(F)cc2)nc(N[C@H]2CCNC2)n1` was tested, and the IC50 was over 5 µM.

What follows are compounds tested against EGFR (human) (UniProt P00533) (assay: not given). Conditions: hn5.
`CS(=O)(=O)CCNCc1nc(-c2ccc3ncnc(Nc4ccc(F)c(Cl)c4)c3c2)cs1` gave an IC50 of 0.57 µM. `CS(=O)(=O)CCNCc1nc(-c2ccc3ncnc(Nc4ccc(OCc5ccccc5)cc4)c3c2)cs1` was tested, and the IC50 was 1.6 µM.
